According to publication PMC12638379, “An innovative approach to development of new pyrazolylquinolin-2-one hybrids as dual EGFR and BRAF^V600E inhibitors” (Molecular Diversity, 2025):
Where two headings read alike, the source gives them in different places.

Tested on: NCI 60 cancer cell lines
Assay: NCI anticancer screening over a panel of 60 cancer cells, single concentration 10 µM
Assay type: cell-based, human
Conditions: Homo sapiens, read-out: Growth inhibition (GI %)
Method in brief: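 Primary single-dose screen at 10 µM over the NCI panel of 60 human tumour cell lines (leukemia, CNS, lung, colon, kidney, ovary, breast, prostate). The standard NCI Developmental Therapeutics Program protocol was used.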

COc1ccc2[nH]c(=O)cc(-n3ncc(C(C)=O)c3C)c2c1 [Compound 2c, 4-(4-Acetyl-5-methyl-1H-pyrazol-1-yl)-6-methoxyquinolin-2(1H)-one] was tested, and the inhibition at 10 µM (786-0, Renal cancer 786-0, 10 μM) was under 5%, the inhibition at 10 µM (A498, Renal cancer A498, 10 μM) was under 5% and the inhibition at 10 µM (A549, Non-small cell lung cancer A549/ATCC, 10 μM) was under 5%. It also gave an inhibition at 10 µM (ACHN, Renal cancer ACHN, 10 μM) of under 5%, an inhibition at 10 µM (BT-549, Breast cancer BT-549, 10 μM) of under 5% and an inhibition at 10 µM (CAKI-1, Renal cancer CAKI-1, 10 μM) of 15.6%. It also gave an inhibition at 10 µM (CCRF-CEM, Leukemia CCRF-CEM, 10 μM) of 5.28%, an inhibition at 10 µM (COLO 205, Colon cancer COLO 205, 10 μM) of under 5% and an inhibition at 10 µM (DU-145, Prostate cancer DU-145, 10 μM) of under 5%. It also gave an inhibition at 10 µM (EKVX, Non-small cell lung cancer EKVX, 10 μM) of 6.27%, an inhibition at 10 µM (HCC 2998, Colon cancer HCC-2998, 10 μM) of under 5% and an inhibition at 10 µM (HCT-15, Colon cancer HCT-15, 10 μM) of under 5%. For the same compound, the inhibition at 10 µM (HCT-116, Colon cancer HCT-116, 10 μM) was 7.78%, the inhibition at 10 µM (HL-60, Leukemia HL-60(TB), 10 μM) was 12.5% and the inhibition at 10 µM (HOP-62, Non-small cell lung cancer HOP-62, 10 μM) was 18.8%. It also gave an inhibition at 10 µM (HOP-92, Non-small cell lung cancer HOP-92, 10 μM) of 31.6%, an inhibition at 10 µM (HT-29, Colon cancer HT29, 10 μM) of under 5% and an inhibition at 10 µM (Hs-578T, Breast cancer HS 578T, 10 μM) of under 5%. For the same compound, the inhibition at 10 µM (IGROV-1, Ovarian cancer IGROV1, 10 μM) was under 5%, the inhibition at 10 µM (K562, Leukemia K-562, 10 μM) was under 5% and the inhibition at 10 µM (KM12, Colon cancer KM12, 10 μM) was under 5%. For the same compound, the inhibition at 10 µM (LOX IMVI, Melanoma LOX IMVI, 10 μM) was 11.3%, the inhibition at 10 µM (Leukemia SR, 10 μM) was 8.98% and the inhibition at 10 µM (MCF7, Breast cancer MCF7, 10 μM) was under 5%. The inhibition at 10 µM (MDA-MB-231, Breast Cancer MDA-MB 231/ATCC, 10 μM) was 7%, the inhibition at 10 µM (MDA-MB-435, Melanoma MDA-MB-435, 10 μM) was under 5% and the inhibition at 10 µM (MDA-MB-468, Breast cancer MDA-MB-468, 10 μM) was under 5%. For the same compound, the inhibition at 10 µM (MOLT-4, Leukemia MOLT-4, 10 μM) was under 5%, the inhibition at 10 µM (Malme-3M, Melanoma MALME-3M, 10 μM) was under 5% and the inhibition at 10 µM (Melanoma M14, 10 μM) was under 5%. For the same compound, the inhibition at 10 µM (NCI-H23, Non-small cell lung cancer NCI-H23, 10 μM) was under 5%, the inhibition at 10 µM (NCI-H226, Non-small cell lung cancer NCI-H226, 10 μM) was 7.15% and the inhibition at 10 µM (NCI-H322M, Non-small cell lung cancer NCI-H322M, 10 μM) was 7.11%. The inhibition at 10 µM (NCI-H460, Non-small cell lung cancer NCI-H460, 10 μM) was under 5%, the inhibition at 10 µM (NCI-H522, Non-small cell lung cancer NCI-H522, 10 μM) was 8.32% and the inhibition at 10 µM (NCI/ADR-RES, Ovarian cancer NCI/ADR-RES, 10 μM) was under 5%. It also gave an inhibition at 10 µM (OVCAR-3, Ovarian cancer OVCAR-3, 10 μM) of under 5%, an inhibition at 10 µM (OVCAR-4, Ovarian cancer OVCAR-4, 10 μM) of under 5% and an inhibition at 10 µM (OVCAR-5, Ovarian cancer OVCAR-5, 10 μM) of under 5%. It also gave an inhibition at 10 µM (OVCAR-8, Ovarian cancer OVCAR-8, 10 μM) of under 5%, an inhibition at 10 µM (Prostate cancer PC-3, 10 μM) of 13.4% and an inhibition at 10 µM (RPMI-8226, Leukemia RPMI-8226, 10 μM) of 11.7%. The inhibition at 10 µM (RXF 393, Renal cancer RXF 393, 10 μM) was under 5%, the inhibition at 10 µM (SF-268, CNS Cancer SF-268, 10 μM) was under 5% and the inhibition at 10 µM (SF-295, CNS Cancer SF-295, 10 μM) was under 5%. The inhibition at 10 µM (SF-539, CNS Cancer SF-539, 10 μM) was under 5%, the inhibition at 10 µM (SK-MEL-2, Melanoma SK-MEL-2, 10 μM) was under 5% and the inhibition at 10 µM (SK-MEL-5, Melanoma SK-MEL-5, 10 μM) was under 5%. The inhibition at 10 µM (SK-MEL-28, Melanoma SK-MEL-28, 10 μM) was under 5%, the inhibition at 10 µM (SK-OV-3, Ovarian cancer SK-OV-3, 10 μM) was 7.83% and the inhibition at 10 µM (SN12C, Renal cancer SN12C, 10 μM) was under 5%. For the same compound, the inhibition at 10 µM (SNB-19, CNS Cancer SNB-19, 10 μM) was under 5%, the inhibition at 10 µM (SNB-75, CNS Cancer SNB-75, 10 μM) was 11.8% and the inhibition at 10 µM (SW-620, Colon cancer SW-620, 10 μM) was under 5%. For the same compound, the inhibition at 10 µM (T47D, Breast cancer T-47D, 10 μM) was 9.18%, the inhibition at 10 µM (TK-10, Renal cancer TK-10, 10 μM) was under 5% and the inhibition at 10 µM (U-251, CNS Cancer U251, 10 μM) was 5.38%. For the same compound, the inhibition at 10 µM (UACC-62, Melanoma UACC-62, 10 μM) was under 5%, the inhibition at 10 µM (UACC-257, Melanoma UACC-257, 10 μM) was under 5% and the inhibition at 10 µM (UO-31, Renal cancer UO-31, 10 μM) was 34.4%.
